How the values were obtained:
[1] = biological target: T1, c-Myc protein (Homo sapiens, UniProt P01106); assay: Ability of compounds to degrade c-Myc protein in HL60 cells (ELISA); type: cell-based; conditions: HL-60, 1 μM compound, 24 h, read-out: HL60 cells Protein degradation rate (1 μM)
T1 construct: endogenous in cells; host or cells: HL60 cells

[2] = test system: HL60 cells; assay: Anti-proliferation ability of compounds on HL60 cells (CTG); type: cell-based, human; conditions: Homo sapiens, HL-60, 72 h, 3 days, CellTiter-Glo, read-out: HL60 cells Proliferation inhibitory activity
Outline: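 HL60 cells (20000/well) exposed to serially diluted compounds (0.1% DMSO vehicle control) for 3 days. Viability read by CellTiter-Glo luminescence; IC50 fitted from inhibition rates.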

T1 sequence (P01106 whole entry): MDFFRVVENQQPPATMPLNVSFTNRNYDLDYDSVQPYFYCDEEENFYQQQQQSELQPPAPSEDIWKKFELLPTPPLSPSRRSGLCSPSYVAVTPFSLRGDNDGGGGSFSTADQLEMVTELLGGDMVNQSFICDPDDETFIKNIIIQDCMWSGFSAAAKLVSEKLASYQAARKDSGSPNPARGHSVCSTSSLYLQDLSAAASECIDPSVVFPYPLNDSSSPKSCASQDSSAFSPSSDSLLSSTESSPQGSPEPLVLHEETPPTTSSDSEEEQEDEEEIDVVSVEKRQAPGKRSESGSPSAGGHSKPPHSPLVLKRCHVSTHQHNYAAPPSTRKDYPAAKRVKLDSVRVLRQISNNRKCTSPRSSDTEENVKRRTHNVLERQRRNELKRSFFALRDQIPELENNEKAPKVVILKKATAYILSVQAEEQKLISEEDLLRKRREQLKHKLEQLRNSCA

Row | Structure (SMILES) | inhibition at 1 µM [1] [%] | IC50 [2] [nM]
1 | O=C(Cc1cccc2ccccc12)NC[C@H]1CC[C@H](CNC(=O)c2ccc3c(c2)C(=O)N(C2CCC(=O)NC2=O)C3=O)CC1 (some centres unmarked) [A22] | 30 to 60 | 29.2 ± 14.4
2 | CN(Cc1ccc(CNC(=O)Cc2nccc3ccccc23)cc1)Cc1ccc2c(c1)C(=O)N(C1CCC(=O)NC1=O)C2=O (centres unmarked) [A188] | 30 to 60 | 279 ± 33.8
3 | CN(CCc1cccc2cccnc12)Cc1ccc(CNCc2ccc3c(c2)C(=O)N(C2CCC(=O)NC2=O)C3=O)cc1 (centres unmarked) [A183] | 60 to 90 | 16.7 ± 2.5
4 | O=C1CCC(N2C(=O)c3ccc(C(=O)NCc4ccc(CN(CCc5cccc6ccccc56)c5ccccc5)cc4)cc3C2=O)C(=O)N1 (centres unmarked) [A94] | 60 to 90 | 289 ± 48.3
5 | COc1cc(CNC(=O)c2ccc3c(c2)C(=O)N(C2CCC(=O)NC2=O)C3=O)ccc1CNC(=O)Cc1cccc2ccccc12 (centres unmarked) [A115] | 60 to 90 | 8.6 ± 1.8
6 | O=C1CCC(N2C(=O)c3ccc(C(=O)NC[C@H]4CC[C@H](CNC(=O)Nc5nccc6ccccc56)CC4)cc3C2=O)C(=O)N1 (some centres unmarked) [A51] | 60 to 90 | 336 ± 30
7 | O=C(Cc1nccc2ccccc12)NCc1ccc(CC(=O)Nc2ccc3c(c2)CN(C2CCC(=O)NC2=O)C3=O)cc1 (centres unmarked) [A172] | 60 to 90 | < 3

Source: patent US20240350643A1, “PROTEIN DEGRADATION AGENT” (SUZHOU KINTOR PHARMACEUTICALS, INC., priority 2021, published 2024)
